What was measured:
Details in all cases: 1 µM, ATP at Km
[1] = biological target: ALK4 (Homo sapiens, UniProt P36896)
[2] = biological target: ARK5 (Homo sapiens, UniProt O60285)
[3] = biological target: ASK1 (Homo sapiens, UniProt Q99683)
[4] = biological target: AXL (Homo sapiens, UniProt P30530)
[5] = biological target: CDK2/CYCLINA (Homo sapiens, UniProt P24941)
[6] = biological target: CK2 (Homo sapiens, UniProt P68400)
[7] = biological target: DAPK1 (Homo sapiens, UniProt P53355)
[8] = biological target: DAPK2 (Homo sapiens, UniProt Q9UIK4)
[9] = biological target: DYRK2 (Homo sapiens, UniProt Q92630)
[10] = biological target: EPHA5 (Homo sapiens, UniProt P54756)
[11] = biological target: EPHA8 (Homo sapiens, UniProt P29322)
[12] = biological target: FER (Homo sapiens, UniProt P16591)
[13] = biological target: FGFR4 (Homo sapiens, UniProt P22455)
[14] = biological target: GSK3ALPHA (Homo sapiens, UniProt P49840)
[15] = biological target: IGF-1R (Homo sapiens, UniProt P08069)
[16] = biological target: IKKBETA (Homo sapiens, UniProt O14920)
[17] = biological target: IRAK1 (Homo sapiens, UniProt P51617)
[18] = biological target: MAPK1 (Homo sapiens, UniProt P27361)
[19] = biological target: MKK6 (Homo sapiens, UniProt P52564)
[20] = biological target: MRCKBETA (Homo sapiens, UniProt Q9Y5S2)
[21] = biological target: MST1 (Homo sapiens, UniProt Q13043)
[22] = biological target: MUSK (Homo sapiens, UniProt O15146)
[23] = biological target: NEK6 (Homo sapiens, UniProt Q9HC98)
[24] = biological target: NEK7 (Homo sapiens, UniProt Q8TDX7)
[25] = biological target: PAK4 (Homo sapiens, UniProt O96013)
[26] = biological target: PAK6 (Homo sapiens, UniProt Q9NQU5)
[27] = biological target: PAR-1BALPHA (Homo sapiens, UniProt Q7KZI7)
[28] = biological target: PI3K DELTA (Homo sapiens, UniProt O00329)
[29] = biological target: PIM-2 (Homo sapiens, UniProt Q9P1W9)
[30] = biological target: PKCEPSILON (Homo sapiens, UniProt Q02156)
[31] = biological target: CRAF (Homo sapiens, UniProt P04049)
[32] = biological target: SAPK2A (Homo sapiens, UniProt Q16539)
[33] = biological target: SGK2 (Homo sapiens, UniProt Q9HBY8)
[34] = biological target: SIK (Homo sapiens, UniProt P57059)
[35] = biological target: TSSK2 (Homo sapiens, UniProt Q96PF2)
[36] = biological target: WNK3 (Homo sapiens, UniProt Q9BYP7)
[37] = biological target: CK1GAMMA2 (Homo sapiens, UniProt P78368)
[38] = biological target: CAMKIIBETA (Homo sapiens, UniProt Q13554)
[39] = biological target: RSK4 (Homo sapiens, UniProt Q9UK32)
[40] = biological target: TAO3 (Homo sapiens, UniProt Q9H2K8)
[41] = biological target: TAO1 (Homo sapiens, UniProt Q7L7X3)
[42] = biological target: ULK2 (Homo sapiens, UniProt Q8IYT8)
[43] = biological target: MELK (Homo sapiens, UniProt Q14680)
[44] = biological target: AURKC (Homo sapiens, UniProt Q9UQB9)
[45] = biological target: TGFBR1 (Homo sapiens, UniProt P36897)

Chain of ULK2 (Q8IYT8 whole entry): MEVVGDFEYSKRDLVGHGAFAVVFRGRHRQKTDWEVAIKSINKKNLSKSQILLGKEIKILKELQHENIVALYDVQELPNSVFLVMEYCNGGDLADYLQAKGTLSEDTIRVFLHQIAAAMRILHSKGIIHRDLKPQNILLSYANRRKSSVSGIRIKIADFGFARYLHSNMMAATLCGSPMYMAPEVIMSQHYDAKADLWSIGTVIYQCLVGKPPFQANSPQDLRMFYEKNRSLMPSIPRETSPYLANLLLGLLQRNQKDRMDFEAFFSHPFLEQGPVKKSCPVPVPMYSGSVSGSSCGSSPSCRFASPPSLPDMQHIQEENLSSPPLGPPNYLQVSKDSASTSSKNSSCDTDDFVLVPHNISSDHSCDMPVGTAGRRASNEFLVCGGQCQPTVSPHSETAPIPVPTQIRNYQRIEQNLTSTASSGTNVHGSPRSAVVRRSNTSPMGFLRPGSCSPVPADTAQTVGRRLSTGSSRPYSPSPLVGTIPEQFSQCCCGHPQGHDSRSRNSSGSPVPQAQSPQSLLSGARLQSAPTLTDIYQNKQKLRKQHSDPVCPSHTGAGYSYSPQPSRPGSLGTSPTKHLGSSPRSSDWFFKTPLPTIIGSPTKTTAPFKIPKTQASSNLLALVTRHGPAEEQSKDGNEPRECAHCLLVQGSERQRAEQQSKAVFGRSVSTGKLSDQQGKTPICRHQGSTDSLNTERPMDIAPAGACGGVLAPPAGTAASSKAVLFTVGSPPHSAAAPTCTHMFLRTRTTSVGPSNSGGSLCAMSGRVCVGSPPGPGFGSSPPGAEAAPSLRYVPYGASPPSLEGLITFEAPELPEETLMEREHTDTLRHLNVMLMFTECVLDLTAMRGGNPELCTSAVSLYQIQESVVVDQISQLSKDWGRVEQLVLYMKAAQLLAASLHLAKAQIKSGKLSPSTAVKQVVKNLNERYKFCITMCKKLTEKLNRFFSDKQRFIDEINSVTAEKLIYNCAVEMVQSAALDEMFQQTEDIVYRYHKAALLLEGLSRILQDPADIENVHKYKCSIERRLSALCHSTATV
Chain of MELK (Q14680 whole entry): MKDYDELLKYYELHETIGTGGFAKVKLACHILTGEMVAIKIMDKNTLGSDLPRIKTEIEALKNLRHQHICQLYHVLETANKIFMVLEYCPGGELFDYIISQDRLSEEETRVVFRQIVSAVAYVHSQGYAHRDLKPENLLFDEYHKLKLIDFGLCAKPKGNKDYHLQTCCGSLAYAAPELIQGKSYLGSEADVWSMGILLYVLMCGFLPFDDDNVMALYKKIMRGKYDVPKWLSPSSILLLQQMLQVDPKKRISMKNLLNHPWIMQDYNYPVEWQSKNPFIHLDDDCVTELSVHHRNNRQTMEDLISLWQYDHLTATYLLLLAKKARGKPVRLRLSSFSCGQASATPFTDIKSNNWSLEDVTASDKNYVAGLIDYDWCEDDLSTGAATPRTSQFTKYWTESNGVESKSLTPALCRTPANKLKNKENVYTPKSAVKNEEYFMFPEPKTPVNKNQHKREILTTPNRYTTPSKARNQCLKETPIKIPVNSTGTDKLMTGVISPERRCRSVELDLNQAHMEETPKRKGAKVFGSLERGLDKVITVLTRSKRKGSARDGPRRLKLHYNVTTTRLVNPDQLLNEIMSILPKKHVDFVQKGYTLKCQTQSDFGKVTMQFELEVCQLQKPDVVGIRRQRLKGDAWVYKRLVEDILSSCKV
Chain of ASK1 (Q99683 whole entry): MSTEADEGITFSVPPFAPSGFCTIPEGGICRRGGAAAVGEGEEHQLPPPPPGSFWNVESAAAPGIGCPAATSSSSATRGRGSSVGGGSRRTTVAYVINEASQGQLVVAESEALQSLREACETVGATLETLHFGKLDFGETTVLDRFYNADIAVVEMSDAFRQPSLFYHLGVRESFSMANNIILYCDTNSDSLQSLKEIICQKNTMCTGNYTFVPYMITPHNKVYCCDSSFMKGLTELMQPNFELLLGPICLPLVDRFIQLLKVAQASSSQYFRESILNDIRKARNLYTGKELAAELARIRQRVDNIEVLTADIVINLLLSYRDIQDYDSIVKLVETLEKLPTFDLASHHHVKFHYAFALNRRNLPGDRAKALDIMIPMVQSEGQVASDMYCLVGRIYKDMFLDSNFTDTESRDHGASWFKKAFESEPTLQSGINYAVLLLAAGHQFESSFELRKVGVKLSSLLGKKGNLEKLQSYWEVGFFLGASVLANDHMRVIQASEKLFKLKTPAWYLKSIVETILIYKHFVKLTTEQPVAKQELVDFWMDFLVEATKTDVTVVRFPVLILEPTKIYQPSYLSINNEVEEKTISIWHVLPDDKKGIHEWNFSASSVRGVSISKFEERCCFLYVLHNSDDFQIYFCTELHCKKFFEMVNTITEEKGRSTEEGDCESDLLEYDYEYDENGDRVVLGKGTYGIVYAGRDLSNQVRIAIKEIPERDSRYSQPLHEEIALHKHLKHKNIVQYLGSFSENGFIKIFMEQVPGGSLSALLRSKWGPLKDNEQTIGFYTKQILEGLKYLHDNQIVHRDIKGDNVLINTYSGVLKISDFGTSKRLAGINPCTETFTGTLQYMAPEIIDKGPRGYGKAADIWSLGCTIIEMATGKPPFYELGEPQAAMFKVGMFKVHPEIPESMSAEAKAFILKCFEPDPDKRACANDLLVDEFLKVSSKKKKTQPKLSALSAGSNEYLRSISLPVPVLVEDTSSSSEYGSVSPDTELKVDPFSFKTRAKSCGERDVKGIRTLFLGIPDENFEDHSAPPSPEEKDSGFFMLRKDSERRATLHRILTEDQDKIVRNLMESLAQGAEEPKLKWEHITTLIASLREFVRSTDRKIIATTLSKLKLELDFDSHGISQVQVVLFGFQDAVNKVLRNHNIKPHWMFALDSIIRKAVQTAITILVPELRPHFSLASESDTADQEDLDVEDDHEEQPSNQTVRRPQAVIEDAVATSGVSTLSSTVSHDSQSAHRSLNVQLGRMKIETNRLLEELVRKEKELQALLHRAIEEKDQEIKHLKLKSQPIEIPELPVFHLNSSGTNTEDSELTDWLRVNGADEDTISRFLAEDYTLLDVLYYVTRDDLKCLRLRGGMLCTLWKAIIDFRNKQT
Chain of PAR-1BALPHA (Q7KZI7 whole entry): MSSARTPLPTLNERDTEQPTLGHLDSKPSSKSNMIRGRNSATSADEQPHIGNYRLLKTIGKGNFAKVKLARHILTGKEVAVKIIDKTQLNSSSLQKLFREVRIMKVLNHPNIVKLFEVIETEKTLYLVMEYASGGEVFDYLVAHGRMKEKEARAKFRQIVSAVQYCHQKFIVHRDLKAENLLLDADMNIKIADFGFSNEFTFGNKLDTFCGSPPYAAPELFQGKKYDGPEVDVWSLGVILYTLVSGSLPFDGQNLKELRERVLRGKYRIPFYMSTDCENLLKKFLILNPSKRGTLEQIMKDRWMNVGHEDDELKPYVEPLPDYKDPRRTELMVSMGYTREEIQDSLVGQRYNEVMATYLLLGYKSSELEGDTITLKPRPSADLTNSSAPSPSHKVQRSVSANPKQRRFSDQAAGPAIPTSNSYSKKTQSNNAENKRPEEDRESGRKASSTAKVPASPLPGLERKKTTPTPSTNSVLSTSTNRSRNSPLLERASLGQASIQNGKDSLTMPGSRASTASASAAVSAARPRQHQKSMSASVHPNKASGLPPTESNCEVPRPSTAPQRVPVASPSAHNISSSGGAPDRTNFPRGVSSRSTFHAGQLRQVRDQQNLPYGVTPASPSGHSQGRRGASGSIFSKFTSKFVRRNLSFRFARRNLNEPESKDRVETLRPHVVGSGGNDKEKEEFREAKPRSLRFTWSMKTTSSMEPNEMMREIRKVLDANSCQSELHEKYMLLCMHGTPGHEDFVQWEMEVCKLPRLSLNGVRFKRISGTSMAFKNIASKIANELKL
Chain of DYRK2 (Q92630 whole entry): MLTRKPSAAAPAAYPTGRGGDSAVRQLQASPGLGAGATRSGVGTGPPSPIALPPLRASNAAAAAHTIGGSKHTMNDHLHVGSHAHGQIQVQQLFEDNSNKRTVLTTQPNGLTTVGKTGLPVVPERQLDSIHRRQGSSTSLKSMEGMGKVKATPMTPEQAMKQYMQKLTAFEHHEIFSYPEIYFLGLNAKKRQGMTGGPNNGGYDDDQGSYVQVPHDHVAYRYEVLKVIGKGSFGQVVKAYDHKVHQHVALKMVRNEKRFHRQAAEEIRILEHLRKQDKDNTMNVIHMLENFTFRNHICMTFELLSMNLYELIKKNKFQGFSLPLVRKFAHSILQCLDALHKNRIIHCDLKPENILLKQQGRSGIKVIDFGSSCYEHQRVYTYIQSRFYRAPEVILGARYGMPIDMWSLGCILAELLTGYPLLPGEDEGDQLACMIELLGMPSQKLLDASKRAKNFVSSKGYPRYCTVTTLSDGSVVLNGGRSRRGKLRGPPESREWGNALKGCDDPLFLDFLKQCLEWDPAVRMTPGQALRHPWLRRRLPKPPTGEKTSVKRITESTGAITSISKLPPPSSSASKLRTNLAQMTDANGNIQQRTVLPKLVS
Chain of PIM-2 (Q9P1W9 whole entry): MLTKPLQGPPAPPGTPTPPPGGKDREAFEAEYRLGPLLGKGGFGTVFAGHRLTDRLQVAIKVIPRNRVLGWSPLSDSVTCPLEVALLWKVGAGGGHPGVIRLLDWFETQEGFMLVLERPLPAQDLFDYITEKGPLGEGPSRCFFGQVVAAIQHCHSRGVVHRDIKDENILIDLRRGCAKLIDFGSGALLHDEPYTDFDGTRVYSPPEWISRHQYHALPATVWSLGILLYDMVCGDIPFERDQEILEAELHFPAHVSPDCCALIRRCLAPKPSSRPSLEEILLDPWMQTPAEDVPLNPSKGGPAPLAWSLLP
Chain of AURKC (Q9UQB9 whole entry): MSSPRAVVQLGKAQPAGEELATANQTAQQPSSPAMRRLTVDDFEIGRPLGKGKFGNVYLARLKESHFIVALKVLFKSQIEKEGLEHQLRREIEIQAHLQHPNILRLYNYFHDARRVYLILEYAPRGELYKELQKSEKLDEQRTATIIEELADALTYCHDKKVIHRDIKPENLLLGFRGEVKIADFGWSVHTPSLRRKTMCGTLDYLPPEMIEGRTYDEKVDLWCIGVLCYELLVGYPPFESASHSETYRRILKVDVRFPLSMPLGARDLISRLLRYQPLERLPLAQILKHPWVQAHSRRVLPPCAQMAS

COC1CN(C(=O)c2ccc3c(N)ncc(-c4ccc(-c5cnn(C)c5)cc4)c3n2)C1 [Compound 51]
percentage effect [1]: 9%
percentage effect [2]: 2%
percentage effect [3]: 0%
percentage effect [4]: 27%
percentage effect [5]: 5%
percentage effect [6]: 5%
percentage effect [7]: 0%
percentage effect [8]: 5%
percentage effect [9]: -6%
percentage effect [10]: -1%
percentage effect [11]: -9%
percentage effect [12]: -18%
percentage effect [13]: 3%
percentage effect [14]: -17%
percentage effect [15]: 19%
percentage effect [16]: -14%
percentage effect [17]: 8%
percentage effect [18]: -13%
percentage effect [19]: -4%
percentage effect [20]: -4%
percentage effect [21]: 9%
percentage effect [22]: 3%
percentage effect [23]: -2%
percentage effect [24]: -6%
percentage effect [25]: 4%
percentage effect [26]: -12%
percentage effect [27]: -9%
percentage effect [28]: -10%
percentage effect [29]: 16%
percentage effect [30]: 14%
percentage effect [31]: -20%
percentage effect [32]: -4%
percentage effect [33]: -46%
percentage effect [34]: -3%
percentage effect [35]: 15%
percentage effect [36]: -9%
percentage effect [37]: -24%
percentage effect [38]: -10%
percentage effect [39]: 9%
percentage effect [40]: -16%
percentage effect [41]: -1%
percentage effect [42]: 4%
percentage effect [43]: -10%
percentage effect [44]: 6%
percentage effect [45]: -5%

COC1CN(C(=O)c2ccc3c(N)ncc(-c4ccc(-c5cnn(C)c5)cc4)c3c2)C1 [Compound 59]
percentage effect [1]: 8%
percentage effect [2]: -14%
percentage effect [3]: -10%
percentage effect [4]: -12%
percentage effect [5]: -5%
percentage effect [6]: 8%
percentage effect [7]: -5%
percentage effect [8]: 12%
percentage effect [9]: -9%
percentage effect [10]: 3%
percentage effect [11]: -12%
percentage effect [12]: 3%
percentage effect [13]: 14%
percentage effect [14]: -29%
percentage effect [15]: 9%
percentage effect [16]: 8%
percentage effect [17]: 14%
percentage effect [18]: -20%
percentage effect [19]: -14%
percentage effect [20]: 13%
percentage effect [21]: -10%
percentage effect [22]: -18%
percentage effect [23]: -34%
percentage effect [24]: -26%
percentage effect [25]: 10%
percentage effect [26]: 25%
percentage effect [27]: -4%
percentage effect [28]: -10%
percentage effect [29]: 14%
percentage effect [30]: 8%
percentage effect [31]: 0%
percentage effect [32]: -9%
percentage effect [33]: 38%
percentage effect [34]: -5%
percentage effect [35]: -26%
percentage effect [36]: 4%
percentage effect [37]: -9%
percentage effect [38]: 5%
percentage effect [39]: 13%
percentage effect [40]: -6%
percentage effect [41]: 9%
percentage effect [42]: 8%
percentage effect [43]: -8%
percentage effect [44]: -10%
percentage effect [45]: -4%
